Reference: patent publication US20260250318A1, “COMPOSITIONS AND METHODS FOR CROSSING THE BLOOD BRAIN BARRIER” (VOYAGER THERAPEUTICS, INC., priority 2022, published 2026)

Columns and labels:
Conditions in all cases: synthetic library passage 3, intravenous, relative to wild-type AAV9
[1] = tested on: brain; assay: NGS fold enrichment of synthetic library (passage 3) in C57Bl/6 mice, first cross-species screen; assay type: in vivo
Procedure, shortened: (§1)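 Fold enrichment versus wild-type AAV9 was derived by NGS of RT-PCR-amplified RNA from nervous tissue, collected e.g. 28 days after IV dosing […]. The library (passage 3) was given to two NHPs aged 2-4 years and to 6-8-week BALB/c and C57Bl/6 mice (n=3 each).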

[2] = tested on: brain; assay: NGS fold enrichment of synthetic library (passage 3) in BALB/c mice, first cross-species screen; assay type: in vivo
Procedure, shortened: as §1

[3] = tested on: brain, spinal cord, and DRG of the NHPs; assay: NGS fold enrichment of synthetic library (passage 3) in NHPs, first cross-species screen; assay type: in vivo, cynomolgus macaques (Macaca fascicularis)
Procedure, shortened: as §1

[4] = RNA from brain of C57Bl/6 mice, NGS
[5] = RNA from brain of BALB/c mice, NGS
[6] = RNA from spinal cord of NHPs, NGS

Sequence | Fold enrichment over AAV9 in the brain of Mice (C57Bl/6) ([1]; RNA NGS, brain of C57Bl/6 mice) | Fold enrichment over AAV9 in the brain of Mice (BALB/c) ([2]; RNA NGS, brain of BALB/c mice) | Fold enrichment over AAV9 in the brain of NHPs ([3]; RNA NGS, brain of NHPs) | Fold enrichment over AAV9 in the spinal cord of NHPs ([3]; RNA NGS, spinal cord of NHPs) | Fold enrichment over AAV9 in the brain of Mice (C57Bl/6) [1, 4] | Fold enrichment over AAV9 in the brain of Mice (BALB/c) [2, 5] | Fold enrichment over AAV9 in the brain of NHPs ([3]; RNA from brain of NHPs, NGS) | Fold enrichment over AAV9 in the spinal cord of NHPs [3, 6]
GSLPRGTSDQNQQT | 0.453 fold | 0.495 fold | 2.362 fold | 0.000 fold |  |  |  | 
GSLSHMESGQNQQT | 0.489 fold | 0.265 fold | 1.120 fold | 0.829 fold |  |  |  | 
GSLSSHGVGQNQQT | 1.218 fold | 0.804 fold | 1.911 fold | 7.498 fold |  |  |  | 
GSLSTPSSGQNQQT | 1.094 fold | 0.669 fold | 2.159 fold | 1.279 fold |  |  |  | 
GSLVSQGAGQNQQT | 1.436 fold | 1.246 fold | 2.188 fold | 4.414 fold |  |  |  | 
GSLVSTQSGQNQQT |  |  |  |  | 1.282 fold | 0.650 fold | 1.305 fold | 1.293 fold
GSLVSVQTGQNQQT | 0.903 fold | 0.469 fold | 3.534 fold | 6.043 fold |  |  |  | 
GSLYGQSLGQNQQT |  |  |  |  | 0.894 fold | 0.843 fold | 1.348 fold | 11.248 fold
GSNAQSAHGQNQQT |  |  |  |  | 0.976 fold | 0.245 fold | 1.371 fold | 0.888 fold
GSNGFTALGQNQQT | 0.830 fold | 0.332 fold | 3.361 fold | 2.663 fold |  |  |  | 
GSNGGVGTGQNQQT | 1.191 fold | 1.087 fold | 2.130 fold | 0.788 fold |  |  |  | 
GSNLSFQSGQNQQT | 1.087 fold | 0.719 fold | 2.122 fold | 5.853 fold |  |  |  | 
GSNMGVPLGQNQQT | 0.334 fold | 0.420 fold | 2.049 fold | 2.448 fold |  |  |  | 
GSPGVSPSGQNQQT |  |  |  |  | 0.853 fold | 1.160 fold | 1.178 fold | 3.006 fold
GSPLQDRVGQNQQT | 0.469 fold | 0.391 fold | 1.548 fold | 0.753 fold |  |  |  | 
GSPYMGATGQNQQT | 0.918 fold | 0.254 fold | 1.083 fold | 5.364 fold |  |  |  | 
GSQSTLGLGQNQQT |  |  |  |  | 0.594 fold | 0.400 fold | 1.204 fold | 3.246 fold
GSRDGHTVGQNQQT | 0.495 fold | 0.661 fold | 1.928 fold | 7.089 fold |  |  |  | 
GSRETSLSGQNQQT |  |  |  |  | 1.364 fold | 0.203 fold | 1.373 fold | 5.193 fold
GSRLVHVHGQNQQT | 1.277 fold | 0.934 fold | 2.334 fold | 1.174 fold |  |  |  | 

Sequence | Fold enrichment over AAV9 in the brain of Mice (C57Bl/6) ([1]; RNA NGS, brain of C57Bl/6 mice) | Fold enrichment over AAV9 in the brain of Mice (BALB/c) ([2]; RNA NGS, brain of BALB/c mice) | Fold enrichment over AAV9 in the brain of NHPs ([3]; RNA NGS, brain of NHPs) | Fold enrichment over AAV9 in the spinal cord of NHPs ([3]; RNA NGS, spinal cord of NHPs) | Fold enrichment over AAV9 in the brain of Mice (C57Bl/6) [1, 4] | Fold enrichment over AAV9 in the brain of Mice (BALB/c) [2, 5] | Fold enrichment over AAV9 in the brain of NHPs ([3]; RNA from brain of NHPs, NGS) | Fold enrichment over AAV9 in the spinal cord of NHPs [3, 6]
GSRMTQQFGQNQQT | 1.233 fold | 0.976 fold | 1.720 fold | 25.798 fold |  |  |  | 
GSRNGHAVGQNQQT | 0.434 fold | 0.939 fold | 1.574 fold | 2.688 fold |  |  |  | 
GSRNGHTVGRNQQT | 1.162 fold | 0.367 fold | 1.993 fold | 0.000 fold |  |  |  | 
GSRQSKRNELNQQT | 1.325 fold | 0.232 fold | 2.177 fold | 0.000 fold |  |  |  | 
GSRSQYDIGQNQQT | 0.528 fold | 0.193 fold | 1.706 fold | 0.112 fold |  |  |  | 
GSRSTGPSGQNQQT | 0.440 fold | 0.466 fold | 1.819 fold | 2.479 fold |  |  |  | 
GSRTLSNVGQNQQT | 0.617 fold | 0.542 fold | 1.640 fold | 3.219 fold |  |  |  | 
GSRTTQDIGQNQQT |  |  |  |  | 0.685 fold | 0.280 fold | 1.247 fold | 0.000 fold
GSRTTQVIGQNQQT | 0.773 fold | 0.564 fold | 1.570 fold | 1.838 fold |  |  |  | 
GSRTVPVYGQNQQT |  |  |  |  | 1.226 fold | 0.969 fold | 1.371 fold | 0.363 fold
GSRTYQVSGQNQQT |  |  |  |  | 0.638 fold | 0.641 fold | 1.164 fold | 1.853 fold
GSSGHRESGQNQQT | 0.641 fold | 0.691 fold | 1.048 fold | 4.398 fold |  |  |  | 
GSSGIPVSHQNQQT | 0.820 fold | 0.333 fold | 1.690 fold | 3.384 fold |  |  |  | 
GSSGRDMGGQNQQT | 1.052 fold | 0.595 fold | 1.778 fold | 2.177 fold |  |  |  | 
GSSGSHQYGQNQQT |  |  |  |  | 1.129 fold | 0.794 fold | 1.155 fold | 0.000 fold
GSSHRFYGGQNQQT | 0.787 fold | 0.110 fold | 4.732 fold | 0.000 fold |  |  |  | 
GSSHTLALGQNKQT |  |  |  |  | 0.838 fold | 0.643 fold | 1.362 fold | 2.160 fold
GSSHTLALGQNQQT | 0.851 fold | 0.406 fold | 1.441 fold | 7.071 fold |  |  |  | 
GSSHTQALGQNQQT | 0.882 fold | 0.874 fold | 1.784 fold | 0.143 fold |  |  |  | 
GSSKELLWGQNQQT | 0.506 fold | 0.883 fold | 2.163 fold | 0.000 fold |  |  |  | 
